Laboratory results: the supplement of paper PMC10307832

What was measured:
Quizartinib + Trametinib = compound: CC(C)(C)c1cc(NC(=O)Nc2ccc(-c3cn4c(n3)sc3cc(OCCN5CCOCC5)ccc34)cc2)no1 [Quizartinib] + CC(=O)Nc1cccc(-n2c(=O)n(C3CC3)c(=O)c3c(Nc4ccc(I)cc4F)n(C)c(=O)c(C)c32)c1 [Trametinib] (partner 0.02 µM); experiment: relative viability (nuclei count vs DMSO), 5 days (fraction); higher = more cells survive
How it was run: (§1)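 Lung cancer cell lines were seeded in 1536-well plates and dosed by pin tool the next day, with either a single drug or a fixed anchor-drug dose combined with five library-drug doses (not always all listed) spaced in √10 steps. Five days later, one step fixed the cells and stained their nuclei (final 0.05% Triton X-100, 1% formaldehyde, 1 ug/ml Hoechst), and nuclei were counted on 4× images. Relative viability is the nuclei count in treated wells divided by the count in vehicle wells, and each value is the median of duplicate plates.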

Quizartinib + AZD7762 = compound: CC(C)(C)c1cc(NC(=O)Nc2ccc(-c3cn4c(n3)sc3cc(OCCN5CCOCC5)ccc34)cc2)no1 [Quizartinib] + NC(=O)Nc1cc(-c2cccc(F)c2)sc1C(=O)N[C@H]1CCCNC1 [AZD7762] (partner 0.2 µM); experiment: as above
How it was run: as §1

Row | Cell Line | relative viability (Quizartinib + Trametinib; first compound 0.001 µM) | relative viability (Quizartinib + Trametinib; first compound 0.003162 µM) | relative viability (Quizartinib + Trametinib; first compound 0.01 µM) | relative viability (Quizartinib + Trametinib; first compound 0.03162 µM) | relative viability (Quizartinib + Trametinib; first compound 0.1 µM) | relative viability (Quizartinib + AZD7762; first compound 0.001 µM) | relative viability (Quizartinib + AZD7762; first compound 0.003162 µM) | relative viability (Quizartinib + AZD7762; first compound 0.01 µM) | relative viability (Quizartinib + AZD7762; first compound 0.03162 µM) | relative viability (Quizartinib + AZD7762; first compound 0.1 µM)
1 | SK-MES-1 | 0.587 | 0.542 | 0.553 | 0.478 | 0.512 |  |  |  |  | 
2 | NCI-H1975 | 0.285 | 0.381 | 0.287 | 0.435 | 0.322 | 0.729 | 0.721 | 0.743 | 0.587 | 0.651
3 | HCC-78 | 0.727 | 0.662 | 0.848 | 0.593 | 0.913 | 0.671 | 0.805 | 0.539 | 0.535 | 0.777
4 | H3255 |  | 0.561 | 0.653 | 0.637 | 0.663 | 0.905 | 0.894 | 0.911 | 0.911 | 1.03
5 | NCI-H441 | 0.35 | 0.563 | 0.45 | 0.368 | 0.456 | 0.872 | 1.04 | 1.14 | 0.991 | 1.1
6 | NCI-H1755 | 0.744 | 0.851 | 0.856 | 0.784 | 0.755 | 0.486 | 0.392 | 0.489 | 0.526 | 0.434
7 | LCLC-97TM1 | 0.158 | 0.186 | 0.191 | 0.216 | 0.184 | 0.197 | 0.334 | 0.325 | 0.179 | 0.361
8 | NCI-H2085 | 0.62 | 0.528 | 0.567 | 0.531 | 0.515 | 0.861 | 0.9 | 1.04 | 0.87 | 0.596
9 | BEN | 0.998 | 1.02 | 1.19 | 0.925 | 1.22 | 0.66 | 0.766 | 0.563 | 0.582 | 0.676
10 | NCI-H2126 | 0.575 | 0.552 | 0.604 | 0.53 | 0.492 | 1.03 | 0.923 | 0.982 | 0.954 | 1.01
11 | EMC-BAC-2 | 0.811 | 0.899 | 0.865 |  | 0.857 | 0.909 | 1.21 | 1.16 |  | 1.19
12 | NCI-H1793 | 0.395 | 0.435 | 0.444 | 0.448 | 0.452 | 0.483 | 0.414 | 0.451 | 0.409 | 0.259
13 | NCI-H650 | 0.94 | 0.938 | 0.96 | 0.923 | 1.06 | 0.858 | 0.785 | 1.25 | 0.856 | 1.13
14 | NCI-H1437 | 0.458 | 0.482 | 0.492 | 0.49 | 0.346 | 0.944 | 1.05 | 1.17 | 1.04 | 0.943
15 | COR-L 105 | 0.449 | 0.445 | 0.507 |  | 0.516 |  |  |  |  | 
16 | CAL-12T | 0.371 | 0.371 | 0.345 | 0.271 | 0.352 | 0.632 | 0.663 | 0.759 | 0.495 | 0.689
17 | ChaGo-K-1 |  | 0.881 | 0.889 | 0.9 | 0.865 |  | 0.841 | 0.981 | 0.84 | 0.932
18 | LU99A | 0.485 | 0.503 | 0.554 | 0.583 | 0.518 | 0.336 | 0.324 | 0.435 | 0.479 | 0.324

Row | Cell Line | relative viability (Quizartinib + Trametinib; first compound 0.001 µM) | relative viability (Quizartinib + Trametinib; first compound 0.003162 µM) | relative viability (Quizartinib + Trametinib; first compound 0.01 µM) | relative viability (Quizartinib + Trametinib; first compound 0.03162 µM) | relative viability (Quizartinib + Trametinib; first compound 0.1 µM) | relative viability (Quizartinib + AZD7762; first compound 0.001 µM) | relative viability (Quizartinib + AZD7762; first compound 0.003162 µM) | relative viability (Quizartinib + AZD7762; first compound 0.01 µM) | relative viability (Quizartinib + AZD7762; first compound 0.03162 µM) | relative viability (Quizartinib + AZD7762; first compound 0.1 µM)
19 | EKVX |  | 0.327 | 0.331 | 0.437 | 0.284 |  | 0.621 | 0.744 | 0.67 | 0.841
20 | LC-2-ad | 0.809 | 0.92 | 0.899 | 0.883 | 0.624 | 0.75 | 0.835 | 0.91 | 0.883 | 0.835
21 | PC-14 | 0.692 | 0.726 | 0.977 |  | 0.836 | 0.31 | 0.417 | 0.327 | 0.22 | 0.457
22 | NCI-H1395 | 0.842 | 0.924 | 0.979 | 1.03 | 1.13 | 0.477 | 0.395 | 0.46 | 0.367 | 0.367
23 | NCI-H2405 | 0.623 | 0.621 | 0.599 | 0.57 | 0.691 | 0.919 | 0.741 | 0.789 | 0.745 | 0.797
24 | SW 900 | 0.769 | 0.943 | 0.843 | 0.899 | 0.803 | 0.711 | 0.498 | 0.597 | 0.532 | 0.58
25 | NCI-H2009 | 0.266 | 0.251 | 0.218 | 0.246 | 0.247 |  |  |  |  | 
26 | EPLC-272H | 0.291 | 0.254 | 0.241 | 0.283 | 0.304 | 0.287 | 0.325 | 0.258 | 0.208 | 0.231
27 | LCLC-103H | 0.658 | 0.645 | 0.664 | 0.712 | 0.694 | 0.664 | 0.701 | 0.746 | 0.866 | 0.829
28 | NCI-H1650 | 0.608 | 0.662 | 0.556 |  | 0.564 |  |  |  |  | 
29 | SW 1573 | 0.594 | 0.47 | 0.711 |  | 0.655 |  |  |  |  | 
30 | NCI-H1703 |  |  |  |  |  | 0.155 | 0.143 |  |  | 0.134
31 | NCI-H2087 | 0.233 | 0.217 | 0.223 | 0.202 | 0.19 | 1.13 | 1.15 | 1.26 | 1.38 | 1.3
32 | HCC-15 | 0.403 | 0.387 | 0.409 | 0.326 | 0.364 | 1.35 | 1.13 | 0.951 | 1.14 | 0.958
33 | NCI-H1915 | 0.28 | 0.31 | 0.331 | 0.29 | 0.313 | 0.683 | 0.613 | 0.646 | 0.694 | 0.721
34 | NCI-H1666 | 0.856 | 0.746 | 0.888 | 0.79 | 0.772 | 0.851 | 0.803 | 0.888 | 0.8 | 0.99
35 | NCI-H1651 | 0.715 | 0.785 | 0.898 | 0.797 | 0.859 | 0.473 | 0.346 | 0.508 | 0.416 | 0.466
36 | NCI-H2347 | 0.249 | 0.271 | 0.267 | 0.229 | 0.287 | 0.728 | 0.696 | 0.799 | 0.768 | 0.749
